Earlier results on one compound are cited in patent US9018178B2, “Method for the treatment of food, feed and agricultural products with a polyene antifungal compound” (DSM IP Assets B.V., priority 2007, dated 2015).

Each structure is given as a SMILES string.

This data set has as its system common food spoilage yeasts and moulds. The conditions noted are these: most strains of common food spoilage yeasts and moulds.

For the compound `C[C@@H]1C/C=C/C=C/C=C/C=C/[C@H](O[C@@H]2O[C@H](C)[C@@H](O)[C@H](N)[C@@H]2O)C[C@@H]2O[C@](O)(C[C@@H](O)C[C@H]3O[C@@H]3/C=C/C(=O)O1)C[C@H](O)[C@H]2C(=O)O` [natamycin], the “Concentrations inhibiting most strains” value was 1-15 ppm.
